According to BindingDB's records for patent US20230339981 (Gilead Sciences, 2023):

The compounds below were run against GTPase KRas [G12D] (Homo sapiens, UniProt P01116, G12D) (assay: Biochemical Assay).
Description: Compounds were tested for binding to GDP-loaded KRAS G12D in a 384-well assay format using a TR-FRET probe displacement assay in buffer consisting of 50 mM Hepes (pH 7.4), 150 mM NaCl, 5 mM MgCl2 and 0.005% Tween-20. […] Compounds were serially diluted (1:3) in DMSO. The LabCyte ECHO Acoustic dispenser system was used to pre-spot the assay plates (384-well Non-Binding Surface plates, Corning, Catalog #3824) with 50 nL of compound. The compounds were pre-incubated with 5 μL of 2× final enzyme concentration for 30 minutes before adding 5 μL of 2× final concentration of Eu-streptavidin and TR-FRET probe (10 μL final reaction volume). The plates were incubated at room temperature for 2 hours before measuring TR-FRET ratio on the Envision plate reader. IC50 values were defined as the compound concentration that causes a 50% decrease in TR-FRET ratio and were calculated using a sigmoidal dose-response model to generate curve fits.

Chain of GTPase KRas [G12D] (P01116 whole entry G12D): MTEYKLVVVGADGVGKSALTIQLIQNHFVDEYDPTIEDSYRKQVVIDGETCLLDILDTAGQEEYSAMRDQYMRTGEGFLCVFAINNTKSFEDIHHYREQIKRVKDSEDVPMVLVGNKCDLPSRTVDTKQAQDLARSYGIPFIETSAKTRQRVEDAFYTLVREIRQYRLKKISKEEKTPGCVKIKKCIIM

Row | Structure (SMILES) | IC50 [nM]
1 | Fc1ccc2cccc(-c3nc4c5c(nc(OC[C@@]67CCCN6C[C@H](F)C7)nc5c3F)N3C[C@H]5CC[C@H](N5)[C@H]3CC4)c2c1OC(F)(F)F [US20230339981, Example 65] | 89
2 | C#Cc1c(F)ccc2cc(O)cc(-c3nc4c5c(nc(OC[Si](C)(C)CN6CCOCC6)nc5c3F)N3C[C@H]5CC[C@H](N5)[C@H]3CO4)c12 [US20230339981, Example 29] | 560
3 | C#Cc1c(F)ccc2cc(O)cc(-c3nc4c5c(nc(OC[C@@]67CCCN6C[C@H](F)C7)nc5c3F)N3C[C@H]5CC[C@H](N5)[C@@H]3CC4)c12 [US20230339981, Example 133] | 0.1
4 | C#Cc1c(F)ccc2cc(O)cc(-c3nc4c5c(nc(OCC6(CN7CCC8(CC7)CC8)CC6)nc5c3F)N3C[C@H]5CC[C@H](N5)[C@H]3CC4)c12 [US20230339981, Example 177] | 0.1
5 | C#Cc1c(F)ccc2cccc(-c3nc4c5c(nc(OC[C@@]67CCCN6C[C@@H](OC(F)(F)F)C7)nc5c3F)N3C[C@H]5CC[C@H](N5)[C@H]3CC4)c12 [US20230339981, Example 140] | 3.7
